Measured values as given in ChEMBL document CHEMBL1201862, “PubChem BioAssay data set” (2004).
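Five compound concentrations were applied to cells in 96-well plates for 48 hours; endpoints were derived by simple linear interpolation of the resulting dose-response curve. GI50: concentration for 50% inhibition of growth.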 Calls of active or inactive are those of the source. Cut-off read from the data, not from the text of the source: active = GI50 up to about 1.1 µM and inactive = higher.

Experiments:
Assay in all cases: NCI tumour cell line growth inhibition, 48 h
786-0 = tested on: 786-0
A498 = tested on: A498
A549 = tested on: A549
ACHN = tested on: ACHN
BT-549 = tested on: BT-549
CAKI-1 = tested on: CAKI-1
COLO 205 = tested on: COLO 205
DU-145 = tested on: DU-145
EKVX = tested on: EKVX
HCC 2998 = tested on: HCC 2998
HCT-116 = tested on: HCT-116
HCT-15 = tested on: HCT-15
HOP-62 = tested on: HOP-62
HOP-92 = tested on: HOP-92
HT-29 = tested on: HT-29
Hs-578T = tested on: Hs-578T
IGROV-1 = tested on: IGROV-1
K562 = tested on: K562
KM12 = tested on: KM12
LOX IMVI = tested on: LOX IMVI
M14 = tested on: M14
MCF7 = tested on: MCF7
MDA-MB-231 = tested on: MDA-MB-231
MDA-MB-435 = tested on: MDA-MB-435
MDA-N = tested on: MDA-N
Malme-3M = tested on: Malme-3M
NCI-H226 = tested on: NCI-H226
NCI-H23 = tested on: NCI-H23
NCI-H460 = tested on: NCI-H460
NCI-H522 = tested on: NCI-H522
NCI/ADR-RES = tested on: NCI/ADR-RES
OVCAR-3 = tested on: OVCAR-3
OVCAR-4 = tested on: OVCAR-4
OVCAR-5 = tested on: OVCAR-5
OVCAR-8 = tested on: OVCAR-8
PC-3 = tested on: PC-3
RPMI-8226 = tested on: RPMI-8226
RXF 393 = tested on: RXF 393
SF-268 = tested on: SF-268
SF-295 = tested on: SF-295
SF-539 = tested on: SF-539
SK-MEL-28 = tested on: SK-MEL-28
SK-MEL-2 = tested on: SK-MEL-2
SK-MEL-5 = tested on: SK-MEL-5
SK-OV-3 = tested on: SK-OV-3
SN12C = tested on: SN12C
SNB-19 = tested on: SNB-19
SNB-75 = tested on: SNB-75
SR = tested on: SR
SW-620 = tested on: SW-620
T47D = tested on: T47D
TK-10 = tested on: TK-10
U-251 = tested on: U-251
UACC-257 = tested on: UACC-257
UACC-62 = tested on: UACC-62
UO-31 = tested on: UO-31
CCRF-CEM = tested on: CCRF-CEM
MOLT-4 = tested on: MOLT-4

Q: What does the source list for `C=CCSc1nc2ccccc2c(=O)n1Cc1ccco1`?
A: GI50 (786-0): > 100 µM (inactive); GI50 (A498): > 100 µM (inactive); GI50 (A549): 78.9 µM (inactive); GI50 (ACHN): > 100 µM (inactive); GI50 (BT-549): > 100 µM (inactive); GI50 (CAKI-1): > 100 µM (inactive); GI50 (COLO 205): > 100 µM (inactive); GI50 (DU-145): > 100 µM (inactive); GI50 (EKVX): > 100 µM (inactive); GI50 (HCC 2998): > 100 µM (inactive); GI50 (HCT-116): 82 µM (inactive); GI50 (HCT-15): 64.1 µM; GI50 (HOP-62): > 100 µM (inactive); GI50 (HOP-92): 86.3 µM (inactive); GI50 (HT-29): 50.1 µM (inactive); GI50 (Hs-578T): > 100 µM (inactive); GI50 (IGROV-1): > 100 µM (inactive); GI50 (K562): > 100 µM (inactive); GI50 (KM12): > 100 µM (inactive); GI50 (LOX IMVI): > 100 µM (inactive); GI50 (M14): > 100 µM (inactive); GI50 (MCF7): 52.2 µM (inactive); GI50 (MDA-MB-231): > 100 µM (inactive); GI50 (MDA-MB-435): > 100 µM (inactive); GI50 (MDA-N): > 100 µM (inactive); GI50 (Malme-3M): > 100 µM (inactive); GI50 (NCI-H226): > 100 µM (inactive); GI50 (NCI-H23): 94.8 µM (inactive); GI50 (NCI-H460): 73.5 µM (inactive); GI50 (NCI-H522): 61.8 µM (inactive); GI50 (NCI/ADR-RES): 39.4 µM (inactive); GI50 (OVCAR-3): 68.7 µM (inactive); GI50 (OVCAR-4): 80.5 µM (inactive); GI50 (OVCAR-5): > 100 µM (inactive); GI50 (OVCAR-8): > 100 µM (inactive); GI50 (PC-3): > 100 µM (inactive); GI50 (RPMI-8226): 37.4 µM (inactive); GI50 (RXF 393): 35.6 µM (inactive); GI50 (SF-268): > 100 µM (inactive); GI50 (SF-295): > 100 µM (inactive); GI50 (SF-539): > 100 µM (inactive); GI50 (SK-MEL-28): > 100 µM (inactive); GI50 (SK-MEL-2): > 100 µM (inactive); GI50 (SK-MEL-5): 45 µM (inactive); GI50 (SK-OV-3): > 100 µM (inactive); GI50 (SN12C): > 100 µM (inactive); GI50 (SNB-19): > 100 µM (inactive); GI50 (SNB-75): 89.1 µM (inactive); GI50 (SR): 47 µM (inactive); GI50 (SW-620): > 100 µM (inactive); GI50 (T47D): 29.1 µM (inactive); GI50 (TK-10): > 100 µM (inactive); GI50 (U-251): > 100 µM (inactive); GI50 (UACC-257): > 100 µM (inactive); GI50 (UACC-62): > 100 µM (inactive); GI50 (UO-31): 91.6 µM (inactive)

Q: What does the source list for `CCCC1NC(=O)C(CC(C)C)NC(=O)c2cccc(n2)C(=O)NC(CC(C)C)C(=O)NC(CCC)C(=O)NC(C(=O)OC)CCCCNC1=O` (configuration not stated)?
A: GI50 (786-0): > 100 µM (inactive); GI50 (A498): > 100 µM (inactive); GI50 (A549): > 100 µM (inactive); GI50 (BT-549): 26.4 µM (inactive); GI50 (CAKI-1): > 100 µM (inactive); GI50 (CCRF-CEM): 15.6 µM (inactive); GI50 (COLO 205): 40.6 µM (inactive); GI50 (DU-145): > 100 µM (inactive); GI50 (EKVX): 20.3 µM (inactive); GI50 (HCC 2998): 11.1 µM (inactive); GI50 (HCT-116): 34 µM (inactive); GI50 (HCT-15): > 100 µM; GI50 (HOP-62): 81.3 µM (inactive); GI50 (HOP-92): 14.6 µM (inactive); GI50 (HT-29): 30.6 µM (inactive); GI50 (Hs-578T): 71.1 µM (inactive); GI50 (IGROV-1): 31.1 µM (inactive); GI50 (K562): 24 µM (inactive); GI50 (KM12): 27.3 µM (inactive); GI50 (LOX IMVI): 19.2 µM (inactive); GI50 (M14): 91 µM (inactive); GI50 (MCF7): 25.9 µM (inactive); GI50 (MDA-MB-231): 18.7 µM (inactive); GI50 (MDA-MB-435): 35.4 µM (inactive); GI50 (MDA-N): 36.9 µM (inactive); GI50 (MOLT-4): 18 µM (inactive); GI50 (Malme-3M): 21.7 µM (inactive); GI50 (NCI-H226): 25.6 µM (inactive); GI50 (NCI-H23): 47.9 µM (inactive); GI50 (NCI-H460): > 100 µM (inactive); GI50 (NCI/ADR-RES): > 100 µM (inactive); GI50 (OVCAR-3): 41.7 µM (inactive); GI50 (OVCAR-4): 38.8 µM (inactive); GI50 (OVCAR-5): > 100 µM (inactive); GI50 (OVCAR-8): 32.8 µM (inactive); GI50 (PC-3): 25.3 µM (inactive); GI50 (RPMI-8226): 14.3 µM (inactive); GI50 (RXF 393): 31.8 µM (inactive); GI50 (SF-268): 28.2 µM (inactive); GI50 (SF-295): 51.1 µM (inactive); GI50 (SF-539): 22 µM (inactive); GI50 (SK-MEL-28): 25.6 µM (inactive); GI50 (SK-MEL-2): 55 µM (inactive); GI50 (SK-MEL-5): > 100 µM (inactive); GI50 (SK-OV-3): 27.2 µM (inactive); GI50 (SN12C): 34.4 µM (inactive); GI50 (SNB-19): 53.5 µM (inactive); GI50 (SNB-75): 16.5 µM (inactive); GI50 (SR): 29 µM (inactive); GI50 (SW-620): 34.8 µM (inactive); GI50 (T47D): 55 µM (inactive); GI50 (TK-10): 57.8 µM (inactive); GI50 (U-251): 32.4 µM (inactive); GI50 (UACC-257): 54.5 µM (inactive); GI50 (UACC-62): 21.2 µM (inactive); GI50 (UO-31): > 100 µM (inactive)
